# Results: patent US8673942B2, “Fused ring compounds and use thereof” (Takeda Pharmaceutical Company Limited, priority 2008, dated 2014)
row,melting point [°C],Compound
1,149 to 151,"CNC(=O)CC1CN=C(c2cc3cc(Oc4ccc(S(C)(=O)=O)nc4)cc(OC(COC)COC)c3[nH]2)S1 (stereo not drawn) [Example 36, 2-[2-(7-[2-Methoxy-1-(methoxymethyl)ethoxy]-5-{[6-(methylsulfonyl)pyridin-3-yl]oxy}-1H-indol-2-yl)-4,5-dihydro-1,3-thiazol-5-yl]-N-methylacetamide]"
2,69 to 71,"COCC(COC)Oc1cc(Oc2ccc(S(C)(=O)=O)nc2)cc2cc(C3=NCC(CCO)S3)[nH]c12 (stereo not drawn) [Example 37, 2-[2-(7-[2-Methoxy-1-(methoxymethyl)ethoxy]-5-{[6-(methylsulfonyl)pyridin-3-yl]oxy}-1H-indol-2-yl)-4,5-dihydro-1,3-thiazol-5-yl]ethanol]"
3,207 to 209,"CNC(=O)CC1CN=C(c2cc3cc(Oc4ccc(S(C)(=O)=O)cn4)cc(OC)c3[nH]2)S1 (stereo not drawn) [Example 42, 2-[2-(7-Methoxy-5-{[5-(methylsulfonyl)pyridin-2-yl]oxy}-1H-indol-2-yl)-4,5-dihydro-1,3-thiazol-5-yl]-N-methylacetamide]"
4,123 to 125,"CNC(=O)CC1CN=C(c2cc3cc(Oc4ccc(S(C)(=O)=O)cn4)cc(OC(COC)COC)c3[nH]2)S1 (stereo not drawn) [Example 46, 2-[2-(7-[2-Methoxy-1-(methoxymethyl)ethoxy]-5-{[5-(methylsulfonyl)pyridin-2-yl]oxy}-1H-indol-2-yl)-4,5-dihydro-1,3-thiazol-5-yl]-N-methylacetamide]"
5,135 to 136,"COCc1ccc(Oc2cc(OC)c3[nH]c(C4=NCC(CC(N)=O)S4)cc3c2)cn1 (stereo not drawn) [Example 49, 2-[2-(7-Methoxy-5-{[6-(methoxymethyl)pyridin-3-yl]oxy}-1H-indol-2-yl)-4,5-dihydro-1,3-thiazol-5-yl]acetamide]"
6,102 to 104,"CNC(=O)CC1CN=C(c2cc3cc(Oc4ccc(COC)nc4)cc(OC)c3[nH]2)S1 (stereo not drawn) [Example 50, 2-[2-(7-Methoxy-5-{[6-(methoxymethyl)pyridin-3-yl]oxy}-1H-indol-2-yl)-4,5-dihydro-1,3-thiazol-5-yl]-N-methylacetamide]"
7,130 to 132,"CCNC(=O)CC1CN=C(c2cc3cc(Oc4ccc(COC)nc4)cc(OC)c3[nH]2)S1 (stereo not drawn) [Example 51, N-Ethyl-2-[2-(7-methoxy-5-{[6-(methoxymethyl)pyridin-3-yl]oxy}-1H-indol-2-yl)-4,5-dihydro-1,3-thiazol-5-yl]acetamide]"
8,112 to 113,"COCC(C)Oc1cc(Oc2ccc(S(C)(=O)=O)cc2)cc2cc(C3=NCC(CC(C)(C)O)S3)[nH]c12 (stereo not drawn) [Example 60, 1-(2-{7-(2-Methoxy-1-methylethoxy)-5-[4-(methylsulfonyl)phenoxy]-1H-indol-2-yl}-4,5-dihydro-1,3-thiazol-5-yl)-2-methylpropan-2-ol]"
9,172 to 173,CC(C)Oc1cc(Oc2ccc(S(C)(=O)=O)cn2)cc2cc(C3=NCC(CCO)S3)[nH]c12 (stereo not drawn) [Example 62]
10,151 to 153,"CC(C)Oc1cc(Oc2ccc(S(C)(=O)=O)cn2)cc2cc(C3=NCC(CC(C)(C)O)S3)[nH]c12 (stereo not drawn) [Example 63, 2-Methyl-1-{2-[7-(1-methylethoxy)-5-{[5-(methylsulfonyl)pyridin-2-yl]oxy}-1H-indol-2-yl]-4,5-dihydro-1,3-thiazol-5-yl}propan-2-ol]"
11,212 to 213,"CC(C)Oc1cc(Oc2ccc(S(C)(=O)=O)cn2)cc2cc(C3=NCC(CC(N)=O)S3)[nH]c12 (stereo not drawn) [Example 67, 2-{2-[7-(1-Methylethoxy)-5-{[5-(methylsulfonyl)pyridin-2-yl]oxy}-1H-indol-2-yl]-4,5-dihydro-1,3-thiazol-5-yl}acetamide]"
12,190 to 192,"CNC(=O)CC1CN=C(c2cc3cc(Oc4ccc(S(C)(=O)=O)cn4)cc(OC(C)C)c3[nH]2)S1 (stereo not drawn) [Example 68, N-Methyl-2-{2-[7-(1-methylethoxy)-5-{[5-(methylsulfonyl)pyridin-2-yl]oxy}-1H-indol-2-yl]-4,5-dihydro-1,3-thiazol-5-yl}acetamide]"
